The values that follow come from patent publication US20110086834A1, “ALKYNYL ALCOHOLS AS KINASE INHIBITORS” (AMGEN INC., priority 2008, published 2011).

By pKi is commonly meant −log10 of the Ki, conventionally taken in molar units. What is called pIC50 is −log10 of the IC50, conventionally taken in molar units. Low readings indicate a large IC50, high ones a small IC50.

pIC50, pKi: −log10 of the molar value.

One assay deals with T1, NIK (Homo sapiens, UniProt Q99558).
T1 construct: Both assays utilize a truncated form of NIK containing only the catalytic domain; made in house; host or cells: baculovirus expression system (insect cells implied)
T1 sequence (Q99558 400-655 limits assumed): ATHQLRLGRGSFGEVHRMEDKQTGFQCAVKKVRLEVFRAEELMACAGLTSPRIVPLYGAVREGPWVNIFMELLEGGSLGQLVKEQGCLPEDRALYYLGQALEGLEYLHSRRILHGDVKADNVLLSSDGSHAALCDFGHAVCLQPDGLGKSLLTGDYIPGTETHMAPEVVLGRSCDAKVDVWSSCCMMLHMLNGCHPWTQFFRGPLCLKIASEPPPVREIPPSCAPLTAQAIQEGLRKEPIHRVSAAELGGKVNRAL
Put plainly: homogenous time resolved fluorescence (HTRF) assay for NIK Ki measurement. In kind it is biochemical. As to conditions: truncated NIK (catalytic domain only), autophosphorylation; 10 nM enzyme; 20, 100, 200 or 500 μM ATP; room temperature, 2 hours; read-out: Ki activity in the homogenous time resolved fluorescence (HTRF) assay for NIK.
In the case of `CC(O)(C#Cc1ccc2c(c1)N(c1nc(N)ncc1Cl)CC21CCOCC1)c1nccs1` (racemic) [Example 208, (rac)-4-(1-(2-Amino-5-chloro-4-pyrimidinyl)-1,2,2′,3′,5′,6′-hexahydrospiro[indole-3,4′-pyran]-6-yl)-2-(1,3-thiazol-2-yl)-3-butyn-2-ol], the pKi is over 6.00.

Consider `CC(O)(C#Cc1cccc(Nc2nc(N)ncc2Cl)n1)c1nccs1` (stereo not shown) [Example 147, 4-(6-(2-Amino-5-chloropyrimidin-4-ylamino)pyridin-2-yl)-2-(thiazol-2-yl)but-3-yn-2-ol], for which the pKi is 4.52 to 6.00.

On to `CN1CCC(n2cc(-c3nc(N)ncc3Cl)c3cc(C#CC4(O)CCCC4)ccc32)C1` (stereo not shown) [Example 139, 1-(2-(3-(2-amino-5-chloropyrimidin-4-yl)-1-(1-methylpyrrolidin-3-yl)-1H-indol-5-yl)ethynyl)cyclopentanol], for which the pKi is over 6.00.

On to `Cc1ccnc(C(C)(O)C#Cc2ccc3c(c2)N(c2nc(N)ncc2Cl)CC3)c1` (stereo not shown) [Example 5, 4-(1-(2-amino-5-chloropyrimidin-4-yl)indolin-6-yl)-2-(4-methylpyridin-2-yl)but-3-yn-2-ol], for which the pKi is over 6.00.

With `C[C@@](O)(C#Cc1ccc2[nH]cc(-c3ccncn3)c2c1)c1nccs1` [Example 117, (2R)-4-(3-(pyrimidin-4-yl)-1H-indol-5-yl)-2-(thiazol-2-yl)but-3-yn-2-ol], the pKi is over 6.00.

On to `O=C(NCCCN1CCOCC1)c1cnccc1Nc1cccc(C#CC2(O)CCCC2)c1` [Example 253, 4-((3-((1-Hydroxycyclopentyl)ethynyl)phenyl)amino)-N-(3-(4-morpholinyl)propyl)-3-pyridinecarboxamide], for which the negative-log Ki (pKi) was 4.52 to 6.00.

In the case of `Cc1cc([C@](C)(O)C#Cc2ccc3c(c2)N(c2nc(N)ncc2Cl)CC3)on1` (single isomer, unassigned) [Example 29], the pKi was over 6.00.

As to `Nc1ncc(F)c(-c2c[nH]c3ccc(C#CC4(O)CCCC4)cc23)n1` [Example 95, 1-(2-(3-(2-amino-5-fluoropyrimidin-4-yl)-1H-indol-5-yl)ethynyl)cyclopentanol], the pKi was over 6.00.

For `Cc1cc(C(C)(O)C#Cc2ccc3c(c2)N(c2ccnc(N)n2)CC3)no1` (stereo not shown) [Example 20, 4-(1-(2-aminopyrimidin-4-yl)indolin-6-yl)-2-(5-methylisoxazol-3-yl)but-3-yn-2-ol], the pKi is over 6.00.

As to `O=C(NCCCN1CCOCC1)c1cnccc1-n1ccc2ccc(C#CC3(O)CCCC3)cc21` [Example 254, 4-(6-((1-Hydroxycyclopentyl)ethynyl)-1H-indol-1-yl)-N-(3-(4-morpholinyl)propyl)-3-pyridinecarboxamide], the pKi is 4.52 to 6.00.

Take `COCC1(C)CN(c2nc(N)nc3[nH]cnc23)c2cc(C#CC3(O)CCCC3)ccc21` (single isomer, unassigned) [Example 70, 1-(((3R*)-1-(2-amino-9H-purin-6-yl)-3-(methoxymethyl)-3-methyl-2,3-dihydro-1H-indol-6-yl)ethynyl)cyclopentanol]: the pKi is over 6.00.

For the compound `Cc1nc(C(C)(O)C#Cc2ccc3c(c2)N(c2ccnc(N)n2)CC3)cs1` (stereo not shown) [Example 288, 4-(1-(2-Amino-4-pyrimidinyl)-2,3-dihydro-1H-indol-6-yl)-2-(2-methyl-1,3-thiazol-4-yl)-3-butyn-2-ol], the pKi was over 6.00.

As for `CCN(CC)CCNC(=O)c1ccc(Nc2nccc(N3CCc4ccc(C#CC5(O)CCCC5)cc43)n2)cc1` [Example 262, N-(2-(diethylamino)ethyl)-4-((4-(6-((1-hydroxycyclopentyl)ethynyl)-2,3-dihydro-1H-indol-1-yl)-2-pyrimidinyl)amino)benzamide], the pKi was over 6.00.

The target of the next assay is T1, NIK. The experiment in a line: chemiluminescent (CL) assay for NIK IC50 determination. In kind it is biochemical. As to conditions: truncated NIK (catalytic domain only), autophosphorylation; 50 nM biotinylated-NIK; 50 μM ATP; room temperature, 1 hour. How it is done: Two formats of biochemical assays are implemented: (1) chemiluminescent (CL) assay for NIK IC50 determination; (2) homogenous time resolved fluorescence (HTRF) assay for NIK Ki measurement. […] The NIK proteins are purified with baculovirus expression system and further biotinylated with N-hydroxysuccinamide biotin ester (Sigma). […] The reaction mixtures are then immobilized on a Streptavidin-coated plate (Pierce). […] For the HTRF assay, 10 nM of enzyme are incubated with compounds in the presence of 20, 100, 200, or 500 μM of ATP in a buffer with 20 mM of Hepes pH7.5, 20 mM of MgCl2, 0.2% of Tween 20 and 1 mM of DTT at room temperature for 2 hours.
As to `O=C(c1ccc(Nc2nccc(N3CCc4ccc(C#CC5(O)CCCC5)cc43)n2)cc1)N1CCOCC1` [Example 263, 1-((1-(2-((4-(4-morpholinylcarbonyl)phenyl)amino)-4-pyrimidinyl)-2,3-dihydro-1H-indol-6-yl)ethynyl)cyclopentanol], the pIC50 is over 6.00.

With `COCCn1cc(-c2nc(N)ncc2Cl)c2cc(C#CC(C)(O)c3nccs3)ccc21` (stereo not shown) [Example 115, 4-(3-(2-amino-5-chloropyrimidin-4-yl)-1-(2-methoxyethyl)-1H-indol-5-yl)-2-(thiazol-2-yl)but-3-yn-2-ol], the pIC50 is over 6.00.

Compound `COCCOc1cnc(N)nc1-c1c[nH]c2ccc(C#CC(O)(c3ccccc3)C(F)(F)F)cc12` (stereo not shown) [Example 235, 4-(3-(2-Amino-5-(2-methoxyethoxy)-4-pyrimidinyl)-1H-indol-5-yl)-1,1,1-trifluoro-2-phenyl-3-butyn-2-ol] had a pIC50 of over 6.00.

Turning to `CC(O)(C#Cc1ccc2c(c1)N(c1nc(N)ncc1Cl)CC2)c1nccs1` (stereo not shown) [Example 286, 4-(1-(2-Amino-5-chloro-4-pyrimidinyl)-2,3-dihydro-1H-indol-6-yl)-2-(1,3-thiazol-2-yl)-3-Butyn-2-ol], the pIC50 was over 6.00.

As to `Nc1ncc(Cl)c(-c2cn(C(=O)c3cccnc3)c3ccc(C#CC4(O)CCCC4)cc23)n1` [Example 123, (3-(2-amino-5-chloropyrimidin-4-yl)-5-(2-(1-hydroxycyclopentyl)ethynyl)-1H-indol-1-yl)(pyridin-3-yl)methanone], the pIC50 is over 6.00.

The compound `COCCn1cc(-c2nc(N)ncc2Cl)c2cc(C#CC3(O)CC[C@@H](C)C3)ccc21` (stereo partly drawn) [Example 140, (3R)-1-(2-(3-(2-amino-5-chloropyrimidin-4-yl)-1-(2-methoxyethyl)-1H-indol-5-yl)ethynyl)-3-methylcyclopentanol] showed a pIC50 of over 6.00.

`CC1(CCO)CN(c2nc(N)ncc2Cl)c2cc(C#CC3(O)CCCC3)ccc21` (stereo not shown) [Example 51, 1-((1-(2-amino-5-chloro-4-pyrimidinyl)-3-(2-hydroxyethyl)-3-methyl-2,3-dihydro-1H-indol-6-yl)ethynyl)cyclopentanol] showed a pIC50 of over 6.00.

On to `Nc1ncc(Cl)c(-c2cn(C3CCOC3)c3ccc(C#CC4(O)CCCC4)cc23)n1` (stereo not shown) [Example 138, 1-(2-(3-(2-amino-5-chloropyrimidin-4-yl)-1-(tetrahydrofuran-3-yl)-1H-indol-5-yl)ethynyl)cyclopentanol], for which the pIC50 is over 6.00.

As to `CN1CCC2(C1)CN(c1ccnc(N)n1)c1cc(C#CC3(O)CCCC3)ccc12` (racemic) [Example 189, (rac)-1-((1-(2-Amino-4-pyrimidinyl)-1′-methyl-1,2-dihydrospiro[indole-3,3′-pyrrolidin]-6-yl)ethynyl)cyclopentanol], the pIC50 is over 6.00.
